Assay results published in US6673793B2, “Oxazinoquinolones useful for the treatment of viral infections” (Pharmacia & Upjohn Co., priority 2000, dated 2004).
Where “and” joins values, the source holds several entries; their conditions need not be identical. Equal values may be shown once. Where a name gives a salt, the structure may show the parent alone.

Molecular target: T1, CMV polymerase (Human cytomegalovirus, UniProt P08546)
T1 construct: made in house; host or cells: recombinant baculovirus-infected SF-9 cells
Experiment: HCMV polymerase assay, scintillation proximity assay (SPA), modified version
Type: biochemical
Conditions: CMV polymerase IC50 (μM), modified HCMV polymerase SPA assay: compounds diluted in 100% DMSO, 4.5 mM DTT in polymerase buffer, different lot of CMV polymerase
Description: The HCMV polymerase assay is performed using a scintillation proximity assay (SPA) as described in several references, such as N. D. Cook, et al., Pharmaceutical Manufacturing International, pages 49-53 (1992); K. Takeuchi, Laboratory Practice, September issue (1992); U.S. Pat. No. 4,568,649 (1986); which are incorporated by reference herein. Reactions are performed in 96-well plates. The assay is conducted in 100 μl volume with 5.4 mM HEPES (pH 7.5), 11.7 mM KCl, 4.5 mM MgCl2, 0.36 mg/ml BSA, and 90 nM ^3H-dTTP. Assays are run with and without CHAPS, (3-[(3-Cholamidopropyl)-dimethylammonio]-1-propane-sulfonate) at a final concentration of 2 mM. HCMV polymerase is diluted in enzyme dilution buffer containing 50% glycerol, 250 mM NaCl, 10 mM HEPES (pH 7.5), 100 μg/ml BSA, and 0.01% sodium azide. The HCMV polymerase, which is expressed in recombinant baculovirus-infected SF-9 cells and purified according to literature procedures, is added at 10% (or 10 μl) of the final reaction volume, i.e., 100 μl. Compounds are diluted in 50% DMSO and 10 μl are added to each well. Control wells contain an equivalent concentration of DMSO. Unless noted otherwise, reactions are initiated via the addition of 6 nM biotinylated poly(dA)-oligo(dT) template/primer to reaction mixtures containing the enzyme, substrate, and compounds of interest. Plates are incubated in a 25 C. or 37 C. H2O bath and terminated via the addition of 40 μl/reaction of 0.5 M EDTA (pH 8) per well. Reactions are terminated within the time-frame during which substrate incorporation is linear and varied depending upon the enzyme and conditions used, i.e., 30 min. for HCMV polymerase. Ten μl of streptavidin-SPA beads (20 mg/ml in PBS/10% glycerol) are added following termination of the reaction. Plates are incubated 10 min. at 37 C., then equilibrated to room temperature, and counted on a Packard Topcount. Linear regressions are performed and IC50's are calculated using computer software.
A modified version of the above HCMV polymerase assay is performed as described above, but with the following changes: Compounds are diluted in 100% DMSO until final dilution into assay buffer. In the previous assay, compounds are diluted in 50% DMSO. 4.5 mM dithiotherotol (DTT) is added to the polymerase buffer.

T1 sequence (P08546 whole entry): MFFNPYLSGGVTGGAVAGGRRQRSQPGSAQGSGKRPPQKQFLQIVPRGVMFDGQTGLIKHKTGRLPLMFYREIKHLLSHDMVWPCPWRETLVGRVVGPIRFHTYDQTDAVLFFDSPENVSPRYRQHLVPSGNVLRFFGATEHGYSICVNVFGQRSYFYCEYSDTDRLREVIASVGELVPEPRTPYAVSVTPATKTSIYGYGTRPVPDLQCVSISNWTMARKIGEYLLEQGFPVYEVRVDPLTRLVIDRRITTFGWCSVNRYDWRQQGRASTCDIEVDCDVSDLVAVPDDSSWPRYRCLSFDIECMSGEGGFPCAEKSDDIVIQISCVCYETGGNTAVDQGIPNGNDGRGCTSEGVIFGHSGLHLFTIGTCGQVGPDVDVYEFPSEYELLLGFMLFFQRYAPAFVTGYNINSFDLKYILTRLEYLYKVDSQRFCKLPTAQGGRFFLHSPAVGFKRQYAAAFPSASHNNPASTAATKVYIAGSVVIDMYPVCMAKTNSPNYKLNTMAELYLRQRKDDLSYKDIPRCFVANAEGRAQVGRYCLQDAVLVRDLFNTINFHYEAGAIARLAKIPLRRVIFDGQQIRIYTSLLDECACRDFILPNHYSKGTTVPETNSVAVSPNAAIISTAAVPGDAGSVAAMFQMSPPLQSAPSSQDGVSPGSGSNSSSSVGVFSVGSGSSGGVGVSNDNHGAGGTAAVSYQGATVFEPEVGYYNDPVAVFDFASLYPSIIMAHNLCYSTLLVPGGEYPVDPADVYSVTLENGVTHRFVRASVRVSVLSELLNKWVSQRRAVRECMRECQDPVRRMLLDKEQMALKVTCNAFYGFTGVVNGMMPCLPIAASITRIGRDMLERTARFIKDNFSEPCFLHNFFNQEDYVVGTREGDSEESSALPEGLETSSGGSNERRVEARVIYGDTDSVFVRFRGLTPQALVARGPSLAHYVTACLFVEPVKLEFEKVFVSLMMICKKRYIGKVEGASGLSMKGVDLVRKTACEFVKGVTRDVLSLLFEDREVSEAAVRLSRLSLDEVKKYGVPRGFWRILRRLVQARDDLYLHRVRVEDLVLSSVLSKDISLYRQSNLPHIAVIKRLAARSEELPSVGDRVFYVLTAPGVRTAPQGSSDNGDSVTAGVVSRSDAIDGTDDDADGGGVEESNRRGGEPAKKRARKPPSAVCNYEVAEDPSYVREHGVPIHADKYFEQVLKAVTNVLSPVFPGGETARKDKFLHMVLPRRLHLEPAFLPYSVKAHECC

Row | Structure (SMILES) | IC50 [µM]
1 | COP(=O)(OC)OCC1Cn2cc(C(=O)NCc3ccc(Cl)cc3)c(=O)c3cc(CN4CCOCC4)cc(c32)O1 (centres unmarked) [Example 26, [6-{[(4-Chlorobenzyl)amino]carbonyl}-9-(4-morpholinylmethyl)-7-oxo-2,3-dihydro-7H-[1,4]oxazino[2,3,4-ij]quinolin-2-yl]methyl dimethyl phosphate] | 0.53

Same assay, conditions: modified HCMV polymerase SPA assay: compounds diluted in 100% DMSO, 4.5 mM DTT in polymerase buffer, different lot of CMV polymerase; read-out: CMV polymerase IC50

Row | IC50 | Structure (SMILES)
2 | 0.57 µM and 0.27 µM | O=C(NCc1ccc(Cl)cc1)c1cn2c3c(cc(CN4CCOCC4)cc3c1=O)OC(c1cccnc1)C2 (single isomer, unassigned) [Example 58, N-(4-Chlorobenzyl)-9-(morpholin-4-ylmethyl)-7-oxo-2-(R or S)-pyridin-3-yl-2,3-dihydro-7H-[1,4]oxazino[2,3,4-ij]quinoline-6-carboxamide]
3 | 0.61 µM | O=C(NCc1ccc(Cl)cc1)c1cn2c3c(cc(CN4CCOCC4)cc3c1=O)OC(CO)C2 (centres unmarked) [Example 1, N-(4-Chlorobenzyl)-2-(hydroxymethyl)-9-(4-morpholinylmethyl)-7-oxo-2,3-dihydro-7H-[1,4]oxazino[2,3,4-ij]quinoline-6-carboxamide]
4 | 0.66 µM | O=C(NCc1ccc(Cl)cc1)c1cn2c3c(cc(CN4CCOCC4)cc3c1=O)OC(CNCC(O)CO)C2 (centres unmarked) [Example 6, N-(4-Chlorobenzyl)-2-{[(2,3-dihydroxypropyl)amino]methyl}-9-(4-morpholinylmethyl)-7-oxo-2,3-dihydro-7H-[1,4]oxazino[2,3,4-ij]quinoline-6-carboxamide]
5 | 0.62 µM | O=C(NCc1ccc(Cl)cc1)c1cn2c3c(cc(CN4CCOCC4)cc3c1=O)OC(CNCc1ccccn1)C2 (centres unmarked) [Example 10, N-(4-Chlorobenzyl)-9-(4-morpholinylmethyl)-7-oxo-2-{[(2-pyridinylmethyl)amino]methyl}-2,3-dihydro-7H-[1,4]oxazino[2,3,4-ij]quinoline-6-carboxamide]
6 | 0.54 µM | O=C(NCc1ccc(Cl)cc1)c1cn2c3c(cc(CN4CCOCC4)cc3c1=O)OC(CNCc1cccnc1)C2 (centres unmarked) [Example 11, N-(4-Chlorobenzyl)-9-(4-morpholinylmethyl)-7-oxo-2-{[(3-pyridinylmethyl)amino]methyl}-2,3-dihydro-7H-[1,4]oxazino[2,3,4-ij]quinoline-6-carboxamide]
7 | 0.27 µM | Cn1ccnc1SCC1Cn2cc(C(=O)NCc3ccc(Cl)cc3)c(=O)c3cc(CN4CCOCC4)cc(c32)O1 (centres unmarked) [Example 17]
8 | 1.3 µM | CN(CCS(=O)(=O)O)C(=O)CCCCCCC(=O)OCC1Cn2cc(C(=O)NCc3ccc(Cl)cc3)c(=O)c3cc(CN4CCOCC4)cc(c32)O1 (centres unmarked) [Example 25, 2-[(8-{[6-{[(4-Chlorobenzyl)amino]carbonyl}-9-(4-morpholinylmethyl)-7-oxo-2,3-dihydro-7H-[1,4]oxazino[2,3,4-ij]quinolin-2-yl]methoxy}-8-oxooctanoyl)(methyl)amino]ethanesulfonic acid sodium salt]
9 | 0.92 µM | O=C(NCc1ccc(Cl)cc1)c1cn2c3c(cc(CN4CCOCC4)cc3c1=O)OC(c1ccccc1)C2 (centres unmarked) [Example 27, N-(4-Chlorobenzyl)-9-(4-morpholinylmethyl)-7-oxo-2-phenyl-2,3-dihydro-7H-[1,4]oxazino[2,3,4-ij]quinoline-6-carboxamide]
10 | 1 µM | O=C(NCc1ccc(Cl)cc1)c1cn2c3c(cc(CN4CCOCC4)cc3c1=O)OCC2c1ccccc1 (centres unmarked) [Example 29, N-(4-Chlorobenzyl)-9-(4-morpholinylmethyl)-7-oxo-3-phenyl-2,3-dihydro-7H-[1,4]oxazino[2,3,4-ij]quinoline-6-carboxamide]

The next lines start with the compound.

Row | Structure (SMILES) | IC50
11 | O=C(NCc1ccc(Cl)cc1)c1cn2c3c(cc(CN4CCOCC4)cc3c1=O)OC(CO)C2 (single isomer, unassigned) [Example 20, N-(4-Chlorobenzyl)-2-(R or S)-(hydroxymethyl)-9-(4-morpholinylmethyl)-7-oxo-2,3-dihydro-7H-[1,4]oxazino[2,3,4-ij]quinoline-6-carboxamide] | 0.35 µM
12 | O=C(NCc1ccc(Cl)cc1)c1cn2c3c(cc(CN4CCOCC4)cc3c1=O)OC(CO)C2 (single isomer, unassigned) [Example 21, N-(4-Chlorobenzyl)-2-(R or S)-(hydroxymethyl)-9-(4-morpholinylmethyl)-7-oxo-2,3-dihydro-7H-[1,4]oxazino[2,3,4-ij]quinoline-6-carboxamide] | 0.67 µM
13 | O=C(NCc1ccc(Cl)cc1)c1cn2c3c(cc(CN4CCOCC4)cc3c1=O)OC(CNCc1cccnc1)C2 (single isomer, unassigned) [Example 22, N-(4-chlorobenzyl)-9-(4-morpholinylmethyl)-7-oxo-2-(R or S)-{[(3-pyridinylmethyl)amino]methyl}-2,3-dihydro-7H-[1,4]oxazino[2,3,4-ij]quinoline-6-carboxamide] | 0.3 µM
14 | O=C(NCc1ccc(Cl)cc1)c1cn2c3c(cc(CN4CCOCC4)cc3c1=O)OC(CNCc1cccnc1)C2 (single isomer, unassigned) [Example 23, N-(4-Chlorobenzyl)-9-(4-morpholinylmethyl)-7-oxo-2-(R or S)-{[3-pyridinylmethyl)amino]methyl}-2,3-dihydro-7H-[1,4]oxazino[2,3,4-ij]quinoline-6-carboxamide] | 1.1 µM
15 | O=C(NCc1ccc(Cl)cc1)c1cn2c3c(cc(CN4CCOCC4)cc3c1=O)OC(c1ccccn1)C2 (single isomer, unassigned) [Example 57, N-(4-Chlorobenzyl)-9-(morpholin-4-ylmethyl)-7-oxo-2-(R or S)-pyridin-2-yl-2,3-dihydro-7H-[1,4]oxazino[2,3,4-ij]quinoline-6-carboxamide] | 0.68 µM and 0.32 µM
16 | O=C(NCc1ccc(Cl)cc1)c1cn2c3c(cc(CN4CCOCC4)cc3c1=O)OC(CNCCO)C2 (centres unmarked) [Example 7, N-(4-Chlorobenzyl)-2-{[(2-hydroxyethyl)amino]methyl}-9-(4-morpholinylmethyl)-7-oxo-2,3-dihydro-7H-[1,4]oxazino[2,3,4-ij]quinoline-6-carboxamide] | 0.67 µM
17 | O=C(NCc1ccc(Cl)cc1)c1cn2c3c(cc(CN4CCOCC4)cc3c1=O)OC(CN(CCO)CCO)C2 (centres unmarked) [Example 9, 2-{[bis(2-Hydroxyethyl)amino]methyl}-N-(4-chlorobenzyl)-9-(4-morpholinylmethyl)-7-oxo-2,3-dihydro-7H-[1,4]oxazino[2,3,4-ij]quinoline-6-carboxamide] | 0.59 µM
18 | O=C(NCc1ccc(Cl)cc1)c1cn2c3c(cc(CN4CCOCC4)cc3c1=O)OC(CSCCO)C2 (centres unmarked) [Example 16, N-(4-Chlorobenzyl)-2-{[(2-hydroxyethyl)sulfanyl]methyl}-9-(4-morpholinylmethyl)-7-oxo-2,3-dihydro-7H-[1,4]oxazino[2,3,4-ij]quinoline-6-carboxamide] | 0.42 µM
19 | O=C(NCc1ccc(Cl)cc1)c1cn2c3c(cc(CN4CCOCC4)cc3c1=O)OC(CSCC(O)CO)C2 (centres unmarked) [Example 19, N-(4-Chlorobenzyl)-2-{[(2,3-dihydroxypropyl)sulfanyl]methyl}-9-(4-morpholinylmethyl)-7-oxo-2,3-dihydro-7H-[1,4]oxazino[2,3,4-ij]quinoline-6-carboxamide] | 0.57 µM
20 | O=C(NCc1ccc(Cl)cc1)c1cn2c3c(cc(CN4CCOCC4)cc3c1=O)OCC2CN1CCOCC1 (centres unmarked) [Example 30, N-(4-Chlorobenzyl)-3,9-bis(4-morpholinylmethyl)-7-oxo-2,3-dihydro-7H-[1,4]oxazino[2,3,4-ij]quinoline-6-carboxamide] | 0.97 µM
